Assay results: patent publication US5648379A (priority 1990, dated 1997)
≈ marks a conversion by molar mass, not a printed value.

Key:
[1] = tested on: Vibrio cholerae neuraminidase; details: literature; cited from earlier work
[2] = molecular target: sheep neuraminidase; test: In vitro inhibition of sheep neuraminidase; format: biochemical; details: pH 4.5
[3] = tested on: H2N2 influenza A virus (A/Sing/1/57); format: in vivo, mice
[4] = tested on: influenza A/Singapore/1/57 (H2N2); test: microbe, parasite or virus in culture; format: cell-based; details: H2N2, MDCK, 72 h, read-out: IC50 Plaque Reduction, Influenza A
[5] = tested on: Influenza B/Victoria/102/85; test: microbe, parasite or virus in culture; format: cell-based; details: MDCK, 72 h, read-out: IC50 Plaque Reduction, Influenza B
[6] = Effective dose in vivo (statement in description); details: compared with DANA
[7] = tested on: influenza virus; test: microbe, parasite or virus in culture; format: cell-based; details: unidentified influenza virus, read-out: IC50 plaque reduction

## CC(=O)NC1C(O)CC(C(=O)O)OC1C(O)C(O)CO (centres unmarked)
[1]
  inhibition of Vibrio cholerae neuraminidase: did not inhibit

## CC(=O)N[C@H]1[C@H]([C@H](O)[C@H](O)CO)OC(C(=O)O)=C[C@@H]1N=C(N)N [Compound 7, Ammonium 5-Acetamido-4-guanidino-2,3,4,5-tetradeoxy-D-glycero-D-galacto-non-2-enopyranosonate]
[2]
  Ki: > 10000 µM
[3]; Experiment 2, 12.5 mg/kg intranasal, days 1-3
  % AUC (lung virus titre, compared to untreated mice): 0.03%
[3]; intranasal, before and during challenge, 1 to 3 days after infection
  titre of virus in lung tissue: reduced the titre of virus in lung tissue
[4]
  IC50: 1.6 µM
[5]
  IC50: 1.6 µM

## COC(=O)C1=C[C@H](O)[C@@H](NC(C)=O)[C@H]([C@H](O)[C@H](O)CO)O1 [methyl ester of DANA]
[6]
  effective dose, in words: effective at proportionally higher dose
[7]
  IC50: 50 to 100 µg/mL (≈ 164 to 328 µM)
